Test system: 9 L gliosarcoma cells
Assay: Amino acid uptake inhibition assay in 9 L gliosarcoma cells
Type: cell-based, rat
Conditions: for uptake of activity blocked by BCH relative to controls: BCH 10 mM; for uptake of activity blocked by BCH relative to controls / uptake of activity blocked by N-MeAIB relative to controls: 30 minutes, 9 L gliosarcoma cells; for uptake of activity blocked by N-MeAIB relative to controls: N-MeAIB 10 mM; for intracellular accumulation in 9 L gliosarcoma cells: absence of inhibitors, 30 minutes of incubation; for substrate for A-type amino acid transport system: based on inhibition of uptake by N-MeAIB
Protocol: Amino acid uptake inhibition assays. The 9 L gliosarcoma cells were initially grown as monolayers in T-flasks containing Dulbecco's Modified Eagle's Medium (DMEM) under humidified incubator conditions (37° C., 5% CO2/95% air). The growth media was supplemented with 10% fetal calf serum and antibiotics (10,000 units/ml penicillin and 10 mg/ml streptomycin). The growth media was replaced three times per week, and the cells were passaged so the cells would reach confluency in a week's time.
When the monolayers were confluent, cells were prepared for experimentation in the following manner. Growth media was removed from the T-flask, and the monolayer cells were exposed to 1× trypsin:EDTA for ˜1 minute to weaken the protein attachments between the cells and the flask. The flask was then slapped, causing the cells to release. Supplemented media was added to inhibit the proteolytic action of the trypsin, and the cells were aspirated through an 18 Ga needle until they were monodisperse. A sample of the cells was counted under a microscope using a hemocytometer, and the live/dead fraction estimated through trypan blue staining (>98% viability). The remainder of the cells was placed into a centrifuge tube, centrifuged at 75 G for 5 minutes, and the supernatant was removed. The cells were then resuspended in amino-acid/serum-free DMEM salts.
In this study, approximately 4.55×10^5 cells were exposed to either [^18F]5a or [^18F]5b (5 μCi) in 3 ml of amino acid free media±transporter inhibitors (10 mM) for 30 minutes under incubator conditions in 12×75 mm glass vials. Each assay condition was performed in duplicate. After incubation, cells were twice centrifuged (75 G for 5 minutes) and rinsed with ice-cold amino-acid/serum-free DMEM salts to remove residual activity in the supernatant. The vials were placed in a Packard Cobra II Auto-Gamma counter, the raw counts decay corrected, and the activity per cell number determined. The data from these studies (expressed as percent uptake relative to control) were graphed using Excel, with statistical comparisons between the groups analyzed using a 1-way ANOVA (GraphPad Prism software package).

Compound	uptake of activity blocked by BCH relative to controls [%]	uptake of activity blocked by N-MeAIB relative to controls [%]	intracellular accumulation in 9 L gliosarcoma cells	substrate for A-type amino acid transport system	selectivity for A-type amino acid transport (compared with [18F]5a)	substrate for non-A transport system (based on inhibition of uptake by BCH)
CNC(C)(CF)C(=O)O (racemic) [[^18F]5b, 3-fluoro-2-methyl-2-(methylamino)propanoic acid]	33	88	0.50 % of the initial dose per million cells	substrates for the A-type amino acid transport system	more selective substrate for the A-type amino transport system than [^18F]5a	–
CC(N)(CF)C(=O)O (racemic) [[^18F]5a, 2-amino-3-fluoro-2-methylpropanoic acid]	48	80	0.43 % of the initial dose per million cells	substrates for the A-type amino acid transport system	–	substrate in vitro for at least one non-A transport system, possibly system L
